Data published in patent US11905265B1, “3,4-dimethoxy-n′-(2-(5-phenyl-1,3,4-oxadiazol-2ylthio)acetoxy)benzimidamide as an antimicrobial compound” (KING FAISAL UNIVERSITY, priority 2023, dated 2024).

How the values were obtained:
Format in all cases: cell-based
Bacillus cereus = test: Agar plate disc-diffusion, antibacterial activity (inhibition zone); conditions: nutrient agar, 37° C., 48 hours
Description: (§1) The agar plate disc-diffusion method was applied. […] The discs were then placed onto the surface of agar plates (nutrient agar for bacteria and Sabouraud's dextrose agar for fungi) seeded with the test organism. Each plate contained 15 mL of the agar medium, previously seeded with 0.2 mL of the broth culture of each organism pregrown for 18 hours. The plates were incubated at 37° C. for 48 hours, and 72 hours for fungi. The inhibition zones were measured in milimeters. Discs impregnated with DMSO were used as a control, and its inhibition zone was subtracted from the tested compound actual inhibition zone.
(§2) The antibacterial activity was screened against gram positive bacteria namely Bacillus cereus and Staphylococcus aureus and gram-negative bacterial strains namely Pseudomonas aeruginosa and Escherichia coli, while the antifungal activity was screened against Aspergillus flavus and Chrysosporium keratinophilum as shown in Table 1 and 2.

Escherichia coli = test: as above; conditions: nutrient agar, 37° C., 48 hours
Description: as §1, §2

Pseudomonas aeruginosa = test: as above; conditions: nutrient agar, 37° C., 48 hours
Description: as §1, §2

Staphylococcus aureus = test: as above; conditions: nutrient agar, 37° C., 48 hours
Description: as §1, §2

Aspergillus flavus = test: Agar plate disc-diffusion, antifungal activity (inhibition zone); conditions: Sabouraud's dextrose agar, 72 hours
Description: as §1, §2

[1] = system: Chrysosporium keratinophilum; test: as above; conditions: Sabouraud's dextrose agar, 72 hours
Description: as §1, §2

[2] = A = concentration of comp. = 10,000 uL
[3] = B = concentration of comp. = 30,000 uL
[4] = C = concentration of comp. = 50,000 uL

Structure (SMILES) | inhibition zone (Bacillus cereus; [2]) | inhibition zone (Bacillus cereus; [3]) | inhibition zone (Bacillus cereus; [4]) | inhibition zone (Escherichia coli; [2]) | inhibition zone (Escherichia coli; [3]) | inhibition zone (Escherichia coli; [4]) | inhibition zone (Pseudomonas aeruginosa; [2]) | inhibition zone (Pseudomonas aeruginosa; [3]) | inhibition zone (Pseudomonas aeruginosa; [4]) | inhibition zone (Staphylococcus aureus; [2]) | inhibition zone (Staphylococcus aureus; [3]) | inhibition zone (Staphylococcus aureus; [4]) | inhibition zone (Aspergillus flavus; [2]) | inhibition zone (Aspergillus flavus; [3]) | inhibition zone (Aspergillus flavus; [4]) | inhibition zone [1, 2] | inhibition zone [1, 3] | inhibition zone [1, 4]
O=C(O)c1cn(C2CC2)c2cc(N3CCNCC3)c(F)cc2c1=O [Cip., ciprofloxacin] | 29 mm | 30 mm | 42 mm | 30 mm | 39 mm | 60 mm | 29 mm | 30 mm | 53 mm | 43 mm | 44 mm | 53 mm | 29 mm | 30 mm | 42 mm | 29 mm | 30 mm | 53 mm
COc1ccc(/C(N)=N/OC(=O)CSc2nnc(-c3ccccc3)o2)cc1OC [Compound 3, 3,4-dimethoxy-N′-(2-(5-phenyl-1,3,4-oxadiazol-2-ylthio)acetoxy)benzimidamide] | 25 mm | 29 mm | 41 mm | 26 mm | 35 mm | 50 mm | 20 mm | 24 mm | 37 mm | 24 mm | 27 mm | 43 mm | 23 mm | 27 mm | 40 mm | 24 mm | 26 mm | 40 mm
